In patent US10696692B2, “Amido-benzyl sulfone and sulfoxide derivates” (Forma TM, LLC, priority 2012, dated 2020) one finds IC50 data, which are given here for 30 molecules.

Where two headings read alike, the source gives them in different places.

One test deals with NAMPT (Homo sapiens (Human), UniProt P43490). The test is described as follows: Assay 1: Biochemical Inhibition Assay (NAMPT enzymatic reaction, NMN quantified by mass spectrometry).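 Note: recombinant His-tagged human NAMPT preincubated with compound 15 min, then reacted 30 min at rt with 1 µM NAM, 100 µM PRPP, 2.5 mM ATP, NMN product read by RapidFire MS, normalized to L-Cystathionine internal standard.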 The following applies: read-out: Biochemical (IC50).
Chain of NAMPT (P43490 whole entry): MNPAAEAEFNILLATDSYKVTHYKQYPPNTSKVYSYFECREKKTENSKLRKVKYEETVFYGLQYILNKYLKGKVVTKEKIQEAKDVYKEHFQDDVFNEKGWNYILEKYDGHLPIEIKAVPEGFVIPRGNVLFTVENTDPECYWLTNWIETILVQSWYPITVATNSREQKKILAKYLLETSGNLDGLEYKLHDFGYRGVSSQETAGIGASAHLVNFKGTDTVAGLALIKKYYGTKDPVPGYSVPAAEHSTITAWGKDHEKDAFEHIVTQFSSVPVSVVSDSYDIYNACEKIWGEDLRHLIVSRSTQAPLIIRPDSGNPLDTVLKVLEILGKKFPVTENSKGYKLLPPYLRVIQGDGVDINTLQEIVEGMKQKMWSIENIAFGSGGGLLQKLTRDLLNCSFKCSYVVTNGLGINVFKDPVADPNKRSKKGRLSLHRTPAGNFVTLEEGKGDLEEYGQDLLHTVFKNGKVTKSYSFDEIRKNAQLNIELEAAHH
The subject of another test is A2780 cells. As to the kind of experiment: Assay 2: In-Vitro Cell Proliferation Assay (A2780 cells, SRB readout, 72 hours).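 Note: viable cells counted via sulforhodamine B staining, absorbance at 570 nm, after 72 h exposure at 37 °C, DMSO 0.1% as control, media-only background subtracted.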 Format: cell-based. To be noted: A2780 cells, 72 hours, SRB, read-out: Cell Proliferation (IC50).

On to `CC(=O)N1CCN(S(=O)(=O)c2ccc(CNC(=O)c3ccc4nccn4c3)cc2)CC1` [Example 93, Imidazo[1,2-a]pyridine-6-carboxylic acid 4-(4-acetyl-piperazine-1-sulfonyl)-benzylamide], for which the IC50 at NAMPT came to 22.4 nM; in the test with A2780 cells (Homo sapiens, A2780, 72 h), 13 nM.
For `O=C(NCc1ccc(S(=O)(=O)N2CCC3(CCNC3)C2)cc1)c1ccc2nccn2c1` (stereo not shown) [Example 262, N-[[4-(2,7-diazaspiro[4.4]nonan-2-ylsulfonyl)phenyl]methyl] imidazo[1,2-a]pyridine-6-carboxamide], the IC50 at NAMPT was determined as 64.9 nM; with A2780 cells (Homo sapiens, A2780, 72 h), 106 nM.
For the molecule `CC(C)CN1CCC([S+]([O-])c2ccc(CNC(=O)c3cnc4[nH]ncc4c3)cc2)CC1` (racemic) [Example 181, 1H-Pyrazolo[3,4-b]pyridine-5-carboxylic acid 4-(1-isobutyl-piperidine-4-sulfinyl)-benzylamide], the IC50 at NAMPT worked out at 130 nM; in the test on A2780 cells (Homo sapiens, A2780, 72 h), 23 nM.
On the same counts, the results for `O=C(NCc1ccc([S+]([O-])C2CCN(C3CCOCC3)CC2)cc1)c1cnc2[nH]ncc2c1` (stereo not shown) [Example 381, N-[[4-[(1-tetrahydropyran-4-yl-4-piperidyl)sulfinyl]phenyl]methyl]-1H-pyrazolo[3,4-b]pyridine-5-carboxamide] are 290 nM and 201 nM.
`O=C(NCc1ccc(S(=O)(=O)N2C[C@@H]3CC(F)(F)[C@@H]3C2)cc1)c1ccc2nccn2c1` (racemic) [Example 147, cis-Imidazo[1,2-a]pyridine-6-carboxylic acid 4-(6,6-difluoro-3-aza-bicyclo[3.2.0]heptane-3-sulfonyl)-benzylamide]: the IC50 on NAMPT was determined as 13.7 nM; in the test with A2780 cells (Homo sapiens, A2780, 72 h) it was 12.5 nM.
On to `O=C(NCc1ccc([S+]([O-])C2CCN(CC(F)(F)F)CC2)cc1)c1ccc2nccn2c1` (stereo not shown) [Example 364, N-[[4-[[1-(2,2,2-tnfluoroethyl)-4-piperidyl]sulfinyl]phenyl]methyl]imidazo[1,2-a]pyridine-6-carboxamide], for which the IC50 on NAMPT came to 2.93 nM; in the test on A2780 cells (Homo sapiens, A2780, 72 h), 3.51 nM.
Turning to `O=C(NCc1ccc(S(=O)(=O)N2CCCC(O)C2)cc1)c1cc2cnccc2[nH]1` (racemic) [Example 35, 1H-Pyrrolo[3,2-c]pyridine-2-carboxylic acid 4-(3-hydroxy-piperidine-1-sulfonyl)-benzylamide], the IC50 worked out at 38.3 nM on NAMPT and 35.1 nM in the test on A2780 cells (Homo sapiens, A2780, 72 h).
Regarding `O=C(NCc1ccc(S(=O)(=O)[C@@H]2CCOC2)cc1)c1cc2cnccc2[nH]1` [Example 225, N-[[4-[(3R)-tetrahydrofuran-3-yl]sulfonylphenyl]methyl]-1H-pyrrolo[3,2-c]pyridine-2-carboxamide], the IC50 worked out at 118 nM at NAMPT and 320 nM in the test with A2780 cells (Homo sapiens, A2780, 72 h).
For `CN1CCC([S+]([O-])c2ccc(CNC(=O)c3ccc4nccn4c3)cc2)CC1` (stereo not shown) [Example 371, N-[[4-[(1-methyl-4-piperidyl)sulfinyl]phenyl]methyl]imidazo[1,2-a]pyridine-6-carboxamide] the same measures were 38 nM and 12.4 nM.
For the molecule `O=C(NCc1ccc(S(=O)(=O)N2CCC3(CNC3)C2)cc1)c1ccc2nccn2c1` [Example 215, N-[[4-(2,6-diazaspiro[3.4]octan-6-ylsulfonyl)phenyl]methyl] imidazo[1,2-a]pyridine-6-carboxamide], the IC50 was 81.5 nM on NAMPT and 166 nM in the test with A2780 cells (Homo sapiens, A2780, 72 h).
Consider `O=C(NCc1ccc(S(=O)(=O)N2CC3(C2)CC(F)(F)C3)cc1)c1ccc2nccn2c1` [Example 270, N-[[4-[(6,6-difluoro-2-azaspiro[3.3]heptan-2-yl)sulfonyl]phenyl]methyl] imidazo[1,2-a]pyridine-6-carboxamide], for which the IC50 at NAMPT stood at 8.77 nM; in the test with A2780 cells (Homo sapiens, A2780, 72 h), 6.07 nM.
For `O=C(NCc1ccc(S(=O)(=O)C2CCNCC2)cc1)c1cc2ccncc2s1` [Example 204, N-[[4-(4-piperidylsulfonyl)phenyl]methyl]thieno[2,3-c] pyridine-2-carboxamide] the same measures were 66 nM and 137 nM.
Turning to `O=C(NCc1ccc(S(=O)(=O)N2CCC[C@H](O)C2)cc1)c1cc2ccncc2o1` [Example 51, Furo[2,3-c]pyridine-2-carboxylic acid 4-((S)-3-hydroxy-piperidine-1-sulfonyl)-benzylamide], the IC50 on NAMPT came to 22.2 nM; in the test on A2780 cells, 39.7 nM.
For the molecule `O=C(NCc1ccc(S(=O)(=O)N2CCC3(CCCO3)C2)cc1)c1ccc2nccn2c1` (stereo not shown) [Example 219, N-[[4-(1-oxa-7-azaspiro[4.4]nonan-7-ylsulfonyl)phenyl]methyl] imidazo[1,2-a]pyridine-6-carboxamide], the IC50 came to 8.45 nM on NAMPT and 2.17 nM with A2780 cells (Homo sapiens, A2780, 72 h).
In the case of `O=C(NCc1ccc(S(=O)(=O)C2CCN(C3CCOCC3)CC2)cc1)c1ccc2nccn2c1` [Example 69, Imidazo[1,2-a]pyridine-6-carboxylic acid 4-[1-(tetrahydro-pyran-4-yl)-piperidine-4-sulfonyl]-benzylamide], the results for the IC50 on NAMPT and with A2780 cells were 13.6 nM and 4.7 nM, respectively.
Regarding `O=C(NCc1ccc(S(=O)(=O)N2CC3CCC(F)(F)C3C2)cc1)c1ccc2nccn2c1` (single isomer, unassigned) [Example 73, cis-Imidazo[1,2-a]pyridine-6-carboxylic acid 4-(4,4-difluoro-hexahydro-cyclopenta[c]pyrrole-2-sulfonyl)-benzylamide], the IC50 was found to be 3 nM on NAMPT and 0.8 nM in the test with A2780 cells.
Regarding `CCCN1CCC([S+]([O-])c2ccc(CNC(=O)c3ccc4nccn4c3)cc2)CC1` (stereo not shown) [Example 375, N-[[4-[(1-propyl-4-piperidyl)sulfinyl]phenyl]methyl)imidazo[1,2-a]pyridine-6-carboxamide], the IC50 at NAMPT was found to be 27.5 nM; with A2780 cells (Homo sapiens, A2780, 72 h), 24.5 nM.
`CC(C)CN1CCC([S+]([O-])c2ccc(CNC(=O)c3ccc4nccn4c3)cc2)CC1` (racemic) [Example 187, N-(4-(1-isobutylpiperidin-4-ylsulfinyl)benzyl)H-imidazo[1,2-a]pyridine-6-carboxamide]: the IC50 at NAMPT came out at 14.2 nM; with A2780 cells (Homo sapiens, A2780, 72 h), 5.8 nM.
For `O=C(NCc1ccc(S(=O)(=O)N2CCCC(O)C2)cc1)c1cc2ccncc2o1` (racemic) [Example 34, Furo[2,3-c]pyridine-2-carboxylic acid 4-(3-hydroxy-piperidine-1-sulfonyl)-benzylamide], the IC50 came to 25.7 nM on NAMPT and 51.9 nM in the test with A2780 cells (Homo sapiens, A2780, 72 h).
“cis-Imidazo[1,2- a]pyridine-6-carboxylic acid 4-[(3aR,6aS)- (tetrahydro-furo[3,4- c]pyrrol-5-yl)sulfonyl]- benzylamide [Example 71]”: the IC50 turned out to be 16.7 nM at NAMPT and 6.4 nM in the test with A2780 cells.
Turning to `CN1CCN(C2CCN(S(=O)(=O)c3ccc(CNC(=O)c4ccc5nccn5c4)cc3)CC2)CC1` [Example 110, Imidazo[1,2-a]pyridine-6-carboxylic acid 4-[4-(4-methyl-piperazin-1-yl)-piperidine-1-sulfonyl]-benzylamide], the IC50 is 3.1 nM on NAMPT and 3.3 nM in the test with A2780 cells (Homo sapiens, A2780, 72 h).
Consider `CC(=O)N1CCCN(S(=O)(=O)c2ccc(CNC(=O)c3ccc4nccn4c3)cc2)CC1` [Example 100, Imidazo[1,2-a]pyridine-6-carboxylic acid 4-(4-acetyl-[1,4]diazepane-1-suIfonyl)-benzylamide], for which the IC50 on NAMPT was found to be 25.7 nM; with A2780 cells (Homo sapiens, A2780, 72 h), 25.4 nM.
On the same counts, the results for `Nc1ncc2c(n1)CN(C(=O)NCc1ccc(S(=O)(=O)C3CCOCC3)cc1)C2` [Example 277, 2-amino-N-[(4-tetrahydropyran-4-ylsulfonylphenyl)methyl]-5,7-dihydropyrrolo[3,4-d]pyrimidine-6-carboxamide] are 2000 nM and 2000 nM.
In the case of `CC(C)(C)OC(=O)N1CC2CN(S(=O)(=O)c3ccc(CNC(=O)c4ccc5nccn5c4)cc3)CC(C1)O2` (racemic) [Example 133, cis-7-(4-{[(Imidazo[1,2-a]pyridine-6-carbonyl)-amino]-methyl}-benzenesulfonyl)-9-oxa-3,7-diaza-bicyclo[3.3.1]nonane-3-carboxylic acid tert-butyl ester], the IC50 on NAMPT amounted to 330 nM; in the test on A2780 cells (Homo sapiens, A2780, 72 h), 96.9 nM.
For `CC(C)N1CCC([S+]([O-])c2ccc(CNC(=O)c3ccc4nccn4c3)cc2)CC1` (stereo not shown) [Example 362, N-[[4-[(1-isopropyl-4-piperidyl)sulfinyl]phenyl]methyl]imidazo[1,2-a]pyridine-6-carboxamide], the IC50 was 35 nM at NAMPT and 22.1 nM with A2780 cells (Homo sapiens, A2780, 72 h).
In the case of `CCN1CCC([S+]([O-])c2ccc(CNC(=O)c3ccc4nccn4c3)cc2)CC1` (stereo not shown) [Example 370, N-[[4-[(1-ethyl-4-piperidyl)sulfinyl]phenyl]methyl]imidazo[1,2-a]pyridine-6-carboxamide], in the test on A2780 cells (Homo sapiens, A2780, 72 h), the IC50 came to 13.4 nM.
For the molecule `O=C(NCc1ccc(S(=O)(=O)N2CCCCC2)cc1)c1cnc2cn[nH]c2c1` [Example 49, 1H-Pyrazolo[4,3-b]pyridine-6-carboxylic acid 4-(piperidine-1-sulfonyl)-benzylamide], the IC50 at NAMPT came out at 2000 nM.
Turning to `CC(C)N1CCN(S(=O)(=O)c2ccc(CNC(=O)c3ccc4nccn4c3)cc2)CC1` [Example 18, Imidazo[1,2-a]pyridine-6-carboxylic acid 4-(4-isopropyl-piperazine-1-sulfonyl)-benzylamide], the IC50 in the test on A2780 cells (Homo sapiens, A2780, 72 h) is 12.9 nM.
On to `O=C(NCc1ccc(S(=O)(=O)N2CCC(N3CCCC3)CC2)cc1)c1cnc2[nH]ncc2c1` [Example 156, 1 H-Pyrazolo[3,4-b]pyridine-5-carboxylic acid 4-(4-pyrrolidin-1-yl-piperidine-1-sulfonyl)-benzylamide], for which the IC50 in the test on A2780 cells (Homo sapiens, A2780, 72 h) amounted to 35.1 nM.
On the same count and under the same terms, to `O=C(NCc1ccc(S(=O)(=O)N2CC3COCC3C2)cc1)c1cnc2[nH]ncc2c1` (stereo not shown) [Example 158, 1H-Pyrazolo[3,4-b]pyridine-5-carboxylic acid 4-(tetrahydro-furo[3,4-c]pyrrole-5-sulfonyl)-benzylamide] belongs 182 nM.
